Assay results as given in the supplement of paper PMC11061612.

Assays:
Assay in all cases: Bliss excess, mean over the matrix (fraction); higher = more synergy
G-361 (Melanoma) = test system: G-361 (Melanoma)
Outline: (§1)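 After 24 hours at 37°C and 5% CO2 in 1536-well plates, cells in DMEM/F12 or RPMI plus 10% FBS received two-drug dose matrices for 72 hours. Viability came from CellTiter-Glo 2.0 luminescence and was scaled as inhibition, anchored at 0 by vehicle wells and at 1 by blank wells. Combination Emax is taken as the second-highest inhibition in the matrix, and Bliss excess as the observed combination effect less EA + EB − EA·EB, with EA and EB the single-agent effects.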

RD (Rhabdomyosarcoma) = test system: RD (Rhabdomyosarcoma)
Outline: as §1

[1] = test system: H9 (T-Cell Non-Hodgkin's Lymphoma)
Outline: as §1

[2] = test system: KU812 (Chronic Myelogenous Leukemia)
Outline: as §1

[3] = test system: NCCIT (Other Solid Carcinomas)
Outline: as §1

[4] = test system: NCI-H3122 (Lung Adenocarcinoma)
Outline: as §1

[5] = test system: DMS-114 (Small Cell Lung Carcinoma)
Outline: as §1

[6] = test system: 8505C (Thyroid Gland Carcinoma)
Outline: as §1

[7] = test system: NCI-H929 (Plasma Cell Myeloma)
Outline: as §1

[8] = test system: VMRC-RCZ (Kidney Carcinoma)
Outline: as §1

[9] = test system: PC-3 (Prostate Carcinoma)
Outline: as §1

[10] = test system: SK-GT-4 (Esophageal Adenocarcinoma)
Outline: as §1

[11] = test system: NCI-H661 (Non-Small Cell Lung Carcinoma)
Outline: as §1

[12] = test system: MOG-G-CCM (Low Grade Glioma)
Outline: as §1

[13] = test system: CW-2 (Colorectal Carcinoma)
Outline: as §1

[14] = test system: JHH-4 (Hepatocellular Carcinoma)
Outline: as §1

[15] = test system: COR-L279 (Small Cell Lung Carcinoma)
Outline: as §1

[16] = test system: RPMI-8226 (Plasma Cell Myeloma)
Outline: as §1

[17] = test system: SU-DHL-5 (B-Cell Non-Hodgkin's Lymphoma)
Outline: as §1

[18] = test system: KY821 (Acute Myeloid Leukemia)
Outline: as §1

Row | SMILES | Bliss excess (G-361 (Melanoma)) | Bliss excess (RD (Rhabdomyosarcoma)) | Bliss excess [1] | Bliss excess [2] | Bliss excess [3] | Bliss excess [4] | Bliss excess [5] | Bliss excess [6] | Bliss excess [7] | Bliss excess [8] | Bliss excess [9] | Bliss excess [10] | Bliss excess [11] | Bliss excess [12] | Bliss excess [13] | Bliss excess [14] | Bliss excess [15] | Bliss excess [16] | Bliss excess [17] | Bliss excess [18]
1 | COc1cccc(OCCCN)c1-c1cc(Nc2cnc(C#N)cn2)n[nH]1 [Prexasertib] + O=C(c1cc(Cc2n[nH]c(=O)c3ccccc23)ccc1F)N1CCN(C(=O)C2CC2)CC1 [Olaparib] (first compound max 1 µM, 7x7, partner max 10 µM) | -0.0411 | -0.0444 | -0.0088 | -0.0947 | -0.103 | 0.0161 | 0.0146 | -0.0434 | -0.0638 | -0.049 | -0.0355 | -0.0984 | -0.0373 | -0.053 | -0.0281 | 0.0296 | -0.0493 | 0.0124 | -0.0097 | -0.0266
2 | COc1cccc(OCCCN)c1-c1cc(Nc2cnc(C#N)cn2)n[nH]1 [Prexasertib] + Cc1cc2ncnn2cc1Nc1ncc2c(n1)n(C1CCOCC1)c(=O)n2C [AZD7648] (first compound max 1 µM, 7x7, partner max 10 µM) | -0.0052 | -0.0283 | 0.0256 | -0.0891 | -0.0331 | 0.0055 | 0.0127 | 0.0131 | -0.0864 | -0.0074 | -0.036 | -0.088 | -0.0543 | -0.0037 | 0.043 | -0.0281 | 0.0225 | -0.0936 | -0.0314 | 0.0276
3 | Cc1c2c(nn1C)CSCc1cc(n(C)n1)CSc1cc(c3ccccc3c1)OCCCc1c(C(=O)O)n(C)c3c-2c(Cl)ccc13 [AZD5991] + Cn1cnc2c(F)c(Nc3ccc(Br)cc3Cl)c(C(=O)NOCCO)cc21 [Selumetinib] (first compound max 1 µM, 7x7, partner max 3 µM) | 0.0083 | 0.039 | 0.0145 | 0.0224 | 0.0003 | -0.0255 | -0.0317 | 0.0319 | 0.0275 | -0.0777 | -0.0029 | -0.0385 | -0.0169 | -0.0241 | 0.0226 | 0.0244 | -0.0172 | 0.0045 | 0.0221 | 0.0044
4 | CN(C)CCCOc1ccc(-c2ccc3ncc4c(c3c2)n(C2CCOCC2)c(=O)n4C)cn1 [AZD0156] + O=C(c1cc(Cc2n[nH]c(=O)c3ccccc23)ccc1F)N1CCN(C(=O)C2CC2)CC1 [Olaparib] (first compound max 3 µM, partner max 3 µM) | 0.0857 | 0.0333 | 0.0284 | 0.264 | 0.0093 | -0.0062 | -0.0425 | 0.066 | 0.016 | -0.0283 | -0.0088 | 0.0611 | 0.0145 | 0.0005 | -0.0031 | -0.0166 | 0.0782 | 0.103 | 0.197 | 0.0829
5 | CN(CCO)CC[C@H](CSc1ccccc1)Nc1ccc(S(=O)(=O)NC(=O)c2ccc(N3CCC([C@@H](O)c4ccccc4-c4ccc(Cl)cc4)CC3)cc2)cc1S(=O)(=O)C(F)(F)F [AZD4320] + C=CCn1c(=O)c2cnc(Nc3ccc(N4CCN(C)CC4)cc3)nc2n1-c1cccc(C(C)(C)O)n1 [AZD1775] (first compound max 1 µM, partner max 1 µM) | 0.0539 | 0.0669 | 0.0178 | 0.0788 | 0.0045 | -0.0108 | 0.0074 | 0.0033 | -0.0219 | -0.0418 | -0.0525 | -0.0438 | -0.0018 | 0.0069 | 0.0032 | -0.0041 | 0.0798 | 0.0467 | 0.0007 | -0.0117
6 | C[C@@H](c1ccc2nccn2c1)n1nnc2ncc(-c3cnn(C)c3)nc21 [Savolitinib] + CC1(C)CCC(CN2CCN(c3ccc(C(=O)NS(=O)(=O)c4ccc(NCC5CCOCC5)c([N+](=O)[O-])c4)c(Oc4cnc5[nH]ccc5c4)c3)CC2)=C(c2ccc(Cl)cc2)C1 [Venetoclax] (first compound max 1 µM, 7x7, partner max 1 µM) | -0.0764 | -0.0598 | -0.0453 | -0.0303 | -0.0394 | -0.0394 | 0.0131 | -0.0664 | 0.0439 | -0.0374 | -0.0806 | -0.0732 | -0.0651 | -0.0448 | -0.0459 | 0.0006 | -0.0059 | -0.0456 | -0.0977 | -0.0139
7 | COc1nnc2ccc(N3CCC(c4ccc(OCCN5CCN(C)C(=O)[C@H]5C)cc4)CC3)nn12 [AZD5153] + Cc1c2c(nn1C)CSCc1cc(n(C)n1)CSc1cc(c3ccccc3c1)OCCCc1c(C(=O)O)n(C)c3c-2c(Cl)ccc13 [AZD5991] (first compound max 1 µM, 7x7, partner max 1 µM) | 0.0501 | 0.0267 | -0.0056 | -0.0007 | -0.0196 | -0.0279 | 0.029 | -0.0393 | -0.0142 | -0.022 | -0.054 | -0.0304 | 0.031 | 0.0248 | -0.0629 | 0.0096 | 0.08 | -0.0253 | -0.0264 | 0.0104
8 | CCc1c2c(nc3ccc(O)cc13)-c1cc3c(c(=O)n1C2)COC(=O)[C@]3(O)CC [SN-38] + CN(C)CCCOc1ccc(-c2ccc3ncc4c(c3c2)n(C2CCOCC2)c(=O)n4C)cn1 [AZD0156] (first compound max 0.3 µM, 7x7, partner max 1 µM) | 0.0105 | -0.0329 | 0.116 | -0.027 | 0.0163 | 0.0427 | 0.0147 | 0.014 | -0.089 | -0.0124 | -0.0306 | -0.12 | 0.0286 | 0.0143 | -0.0118 | 0.0443 | 0.0163 | 0.0218 | 0.0712 | 0.055
9 | CC1(C)CCC(CN2CCN(c3ccc(C(=O)NS(=O)(=O)c4ccc(NCC5CCOCC5)c([N+](=O)[O-])c4)c(Oc4cnc5[nH]ccc5c4)c3)CC2)=C(c2ccc(Cl)cc2)C1 [Venetoclax] + C=CCn1c(=O)c2cnc(Nc3ccc(N4CCN(C)CC4)cc3)nc2n1-c1cccc(C(C)(C)O)n1 [AZD1775] (first compound max 1 µM, partner max 1 µM) | -0.0214 | -0.0163 | -0.0295 | 0.0294 | 0.0522 | -0.0505 | 0.0056 | -0.0083 | 0.0499 | 0.0418 | 0.0286 | 0.0384 | -0.0588 | 0.0303 | -0.0091 | -0.0538 | -0.0349 | 0.0368 | -0.0814 | -0.0104
10 | CC1(C)CCC(CN2CCN(c3ccc(C(=O)NS(=O)(=O)c4ccc(NCC5CCOCC5)c([N+](=O)[O-])c4)c(Oc4cnc5[nH]ccc5c4)c3)CC2)=C(c2ccc(Cl)cc2)C1 [Venetoclax] + C[C@@H]1COCCN1C2=NC(=NC(=C2)C3(CC3)[S@](=N)(=O)C)C4=C5C=CNC5=NC=C4 [AZD6738] (first compound max 1 µM, 7x7, partner max 10 µM) | -0.0132 | 0.002 | 0.0113 | -0.0055 | -0.0355 | -0.0649 | -0.0338 | -0.0219 | -0.0567 | -0.0262 | -0.035 | -0.0364 | -0.0698 | -0.045 | 0.0258 | -0.0399 | 0.0287 | 0.0142 | -0.0214 | -0.0336
11 | CC(=O)c1c(C)c2cnc(Nc3ccc(N4CCNCC4)cn3)nc2n(C2CCCC2)c1=O [Palbociclib] + Cc1c2c(nn1C)CSCc1cc(n(C)n1)CSc1cc(c3ccccc3c1)OCCCc1c(C(=O)O)n(C)c3c-2c(Cl)ccc13 [AZD5991] (first compound max 10 µM, 7x7, partner max 1 µM) | -0.0464 | 0.0077 | -0.0795 | -0.0351 | -0.0538 | -0.0217 | -0.0083 | -0.175 | 0.0099 | -0.026 | -0.0501 | -0.0645 | -0.0443 | -0.0595 | -0.0111 | -0.0518 | 0.006 | -0.0191 | -0.0071 | -0.0372
12 | COc1nnc2ccc(N3CCC(c4ccc(OCCN5CCN(C)C(=O)[C@H]5C)cc4)CC3)nn12 [AZD5153] + CCN(CCO)CCCOc1ccc2c(Nc3cc(CC(=O)Nc4cccc(F)c4)[nH]n3)ncnc2c1 [AZD2811] (first compound max 1 µM, 7x7, partner max 1 µM) | -0.0432 | 0.0001 | -0.0163 | -0.0011 | -0.0288 | -0.0217 | -0.0127 | 0.03 | -0.0026 | -0.0259 | -0.0257 | -0.0421 | -0.0318 | -0.052 | -0.0525 | -0.0334 | -0.0201 | -0.0116 | -0.0638 | 0.0574
13 | COc1cccc(OCCCN)c1-c1cc(Nc2cnc(C#N)cn2)n[nH]1 [Prexasertib] + C=CCn1c(=O)c2cnc(Nc3ccc(N4CCN(C)CC4)cc3)nc2n1-c1cccc(C(C)(C)O)n1 [AZD1775] (first compound max 1 µM, partner max 1 µM) | 0.0806 | 0.0732 | 0.0958 | -0.0401 | 0.0561 | 0.124 | 0.0129 | 0.0849 | 0.15 | -0.02 | 0.0469 | 0.0313 | -0.0287 | 0.0748 | 0.0224 | 0.0703 | 0.0823 | 0.0893 | 0.0644 | 0.063
14 | Cc1cc2ncnn2cc1Nc1ncc2c(n1)n(C1CCOCC1)c(=O)n2C [AZD7648] + C=CCn1c(=O)c2cnc(Nc3ccc(N4CCN(C)CC4)cc3)nc2n1-c1cccc(C(C)(C)O)n1 [AZD1775] (first compound max 10 µM, partner max 1 µM) | 0.0081 | -0.0168 | 0.0346 | 0.0177 | 0.0237 | -0.0402 | -0.0151 | -0.0235 | -0.0572 | 0.0117 | -0.0415 | -0.0515 | -0.0135 | -0.0309 | 0.0419 | 0.04 | -0.0595 | 0.0062 | 0.105 | -0.0098
